Data published in patent US12440535B2, “IL-4 derived peptide fragments for use in the treatment of diabetic nephropathy” (SERODUS APS, priority 2022, dated 2025).
Entries after “also recorded” stand apart in the source; their conditions may differ. Where no end group is shown, it is not given here. [ ]: non-standard residue; d: D form. βAla = NCCC(=O)O

Assays:
macrophages = conditions: cited from earlier work
type II IL-4R = target: T1, type II IL-4R (Homo sapiens, UniProt P24394); conditions: Klementiv 2013; cited from earlier work
T1 sequence (P24394 26-825): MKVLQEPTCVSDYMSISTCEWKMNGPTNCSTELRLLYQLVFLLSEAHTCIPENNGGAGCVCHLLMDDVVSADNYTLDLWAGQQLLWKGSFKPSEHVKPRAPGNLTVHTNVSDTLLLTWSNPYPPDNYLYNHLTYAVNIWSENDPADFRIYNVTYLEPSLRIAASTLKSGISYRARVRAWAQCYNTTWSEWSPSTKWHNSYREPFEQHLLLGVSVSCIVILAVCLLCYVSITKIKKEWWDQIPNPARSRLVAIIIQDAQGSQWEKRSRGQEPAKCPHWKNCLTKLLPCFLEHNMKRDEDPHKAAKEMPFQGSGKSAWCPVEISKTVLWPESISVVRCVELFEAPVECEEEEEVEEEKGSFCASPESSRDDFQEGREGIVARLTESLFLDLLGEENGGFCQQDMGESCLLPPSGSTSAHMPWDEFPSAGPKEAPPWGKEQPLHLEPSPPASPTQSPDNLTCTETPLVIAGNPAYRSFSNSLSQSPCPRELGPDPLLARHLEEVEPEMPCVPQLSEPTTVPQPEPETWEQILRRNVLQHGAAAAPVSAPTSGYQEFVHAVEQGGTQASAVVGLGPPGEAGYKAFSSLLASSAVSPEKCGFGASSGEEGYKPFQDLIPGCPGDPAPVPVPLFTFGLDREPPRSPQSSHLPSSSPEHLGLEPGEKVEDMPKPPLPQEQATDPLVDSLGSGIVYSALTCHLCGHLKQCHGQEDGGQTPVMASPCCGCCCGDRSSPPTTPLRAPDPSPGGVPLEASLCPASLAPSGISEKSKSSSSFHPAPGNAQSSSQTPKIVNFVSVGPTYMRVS

type I IL-4R = target: T2, type I IL-4R (Homo sapiens, UniProt P24394); conditions: Klementiv 2013; cited from earlier work
T2 sequence (P24394 26-825): T1 sequence (P24394 26-825)
T2 sequence (P31785 23-369 partner): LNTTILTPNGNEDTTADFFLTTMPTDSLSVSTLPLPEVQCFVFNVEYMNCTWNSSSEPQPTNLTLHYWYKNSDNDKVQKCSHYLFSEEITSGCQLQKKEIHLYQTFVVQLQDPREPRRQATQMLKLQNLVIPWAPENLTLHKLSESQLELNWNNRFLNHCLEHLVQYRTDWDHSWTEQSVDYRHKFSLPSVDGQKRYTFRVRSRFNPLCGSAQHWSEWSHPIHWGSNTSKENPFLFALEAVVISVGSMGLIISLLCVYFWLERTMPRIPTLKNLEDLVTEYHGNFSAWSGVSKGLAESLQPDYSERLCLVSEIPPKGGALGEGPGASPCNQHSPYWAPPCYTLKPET

IL-4 receptors = conditions: cited from earlier work
ReninAAV UNx db/db mice = ReninAAV UNx db/db mice model of diabetic nephropathy, urine biomarkers; format: in vivo; conditions: 10 mg/kg subcutaneously once daily, compared to vehicle, spot urine at termination day 77
Experimental: 28 female mice (BKS.Cg-Dock7m+/+Lepradb/db BLKS, 5 weeks of age) were transferred to the Gubra Research animal unit. Throughout the habituation and study period, the animals were housed in a light-, temperature-, and humidity-controlled room with free access to food and water. All animal experiments were conducted in accordance with Gubra's bioethical guidelines, which are fully compliant with internationally accepted principles for the care and use of laboratory animals. The animals were group-housed until uni-nephrectomies, then single-housed.
The animals were terminated on day 77; blood was taken for later analysis, body weight was recorded, and spot urine was collected.
Compound A was provided by Phlogo ApS, Copenhagen, Denmark (10 mg/ml miliQ water diluted to the dose formulations). Compound A was provided as a dimeric peptide comprising two copies of the sequence AQFHRHKQLIRFLKRA (SEQ ID NO: 1). […]
Urine samples were stored at minus 80° C. until analysis. […] Urine albumin was measured using a commercial ELISA kit (Bethyl Laboratories, Inc.), according to the manufacturer's instructions, and urine creatinine was measured using a commercial kit (Roche Diagnostics) on the Cobas c 501 autoanalyzer, according to the manufacturer's instructions. Urinary KIM-1 was measured using a commercial ELISA kit (R&D Systems) according to the manufacturer's instructions.

Row | Substance | Macrophage activation (macrophages) | Mode of action on type II IL-4R (type II IL-4R) | Mode of action on type I IL-4R (type I IL-4R) | Binding to the IL-4 receptors (IL-4 receptors) | ACR (urinary albumin corrected for creatinine) (ReninAAV UNx db/db mice) | KIM-1/CR (urinary KIM-1 corrected for creatinine) (ReninAAV UNx db/db mice)
1 | AQFHRHKQLIRFLKRA [SEQ ID NO:1, IL-4 derived peptide, variant of AA71-AA86 of IL-4 with two amino acid substitutions] | inhibiting macrophage activation | antagonist | high affinity partial agonist | capable of binding to the IL-4 receptors |  | 
2 | Compound A: dimer of SEQ ID NO:1 (AQFHRHKQLIRFLKRA), two copies connected via their C-terminal through a lysine-beta-alanine linker (AQFHRHKQLIRFLKRAK[βAla]; also: dimer of two copies joined at C-termini via lysine-beta-alanine linker, Rink amide) |  |  |  |  | significantly decreased; also recorded: significantly reduced | significantly decreased; also recorded: significantly reduced
